Results: patent US5071848A, “Tricyclic quinoline antineoplastic agents” (Abbott Laboratories, priority 1989, dated 1991)
In brackets after ≈: the same amount, converted by molar mass.

Experiments:
P388 Leukemia = assay: In vivo antitumor activity, P388 Leukemia, increased lifespan; parameters: species or system BDF1 mice; conditions: IP, day 1 to day 5, survival monitored 30 days
Procedure: The in vivo data presented in Table 7 was determined in BDF1 mice for two murine cancer models, using 6 to 10 animals per test group. In the case of Lewis Lung carcinoma (LL) the mice are inoculated subcutaneously (SC) in the axillary region with a puncture in the inguinal area with the tumor on day 0. The compound being tested is administered intraperitoneally (IP) from day 1 to day 9 for a total of nine injections. The tumors are weighed on day 14 and the weight inhibition expressed as the median weight ratio of treated (T) to control (C) tumors. In the case of P388 Leukemia cells, a suspension of diluted ascites fluid (0.1 mL) containing 1×10^6 cells is implanted IP into the mice on day 0 and the compound being tested is administered IP from day 1 to day 5 for a total of five injections. Survival was monitored for 30 days and the increased lifespan expressed as median survival time of treated (T) to control (C) mice.

DNA topoisomerase II = assay: DNA Breakage Assay: topoisomerase II-mediated DNA breakage (linearized 32P-labeled PBR 322 plasmid, agarose gel); assay type: biochemical, calf; parameters: key to Topoisomerase II-mediated DNA breakage, extent of breakage: SB: strong breakage; MB: moderate breakage; WB: weak breakage; conditions: for Topoisomerase II-mediated DNA breakage, extent of breakage: at the concentration given; for Topoisomerase II-mediated DNA breakage, Concentration: concentration of compound which cleaves the DNA to smaller fragments, 30 minutes incubation
Procedure: Antitumor activity was assayed using the DNA Breakage Assay described below.
The DNA breakage assay requires two major reagents: DNA topoisomerase II and radiolabeled DNA. DNA topoisomerase II (topo II) was isolated from calf thymus as described by B. D. Holligan, et al. in J. Biol. Chem., 260, 2475-2482 (1985). Pure enzyme or partially purified extracts enriched in topo II activity may be used. PBR 322 plasmid was used as the DNA substrate. This plasmid, which is isolated in the closed circular form, is first linearized using, a restriction enzyme which cuts the plasmid in only one place. The newly exposed ends of the plasmid are then labeled with the radionuclide, 32P, using standard techniques described by T. Maniatis, et al. in "Molecular Cloning", Cold Spring Harbor Press, p. 115 (1982).
The enzyme and the radiolabeled DNA are added together first, then drug is added. After an incubation period of 30 minutes, the mixtures are quenched using 1% SDS. The mixtures are then subjected to agarose gel electrophoresis which separates the full length, linear substrate DNA from any small fragments that might be formed as a consequence of drug action. Smaller fragments run with a higher mobility. The distribution of the DNA species in the gel is assessed by autoradiography as described by T. Maniatis, et al. in "Molecular Cloning", Cold Spring Harbor Press, p. 115 (1982).
DNA breakage activity is assessed based on the level of substrate lost, the level of DNA appearing as smaller pieces running faster in the gel, and the distribution of these smaller pieces in the gel. The last criterion is important since drug-induced DNA cleavage that is enzyme-mediated fragmentation results in specific banding patterns due to the fact that the enzyme binds to specific sequences along the DNA molecule. A definite banding pattern is thus indicative of topo II-mediated cleavage and correlates well with anti-tumor activity.

Hela cells = assay: In vitro cytotoxicity assay (three day MTT microtiter assay), Hela; assay type: cell-based; conditions: Homo sapiens, 72 h; Hela cells, three days, MTT; read-out: In vitro tumor cell cytotoxicity (IC50), Hela
Procedure: (§1) IC50 's were measured in a colorimetric assay for cytotoxic activity against cultured cells according to the protocol described below:
(§2) A three day microtiter assay is used to measure the growth inhibition of cultured cells exposed to a range of drug concentrations. Metabolic activity is measured by the cell's ability to reduce the tetrazolium dye, MTT (3-(4,5-dimethylthiazol-2-yl)-2,5-diphenyltetrazolium bromide) to a quantifiable colored end-product, which absorbs at 570 nm in the visible spectrum. Surviving cells reduce the MTT dye.
(§3) Test compounds are dissolved in dimethyl sulfoxide (DMSO) and diluted, first with Earle's Balanced Salt Solution, followed by culture medium, to twice the highest concentration of compound to be tested. From this concentrated stock, two-fold serial dilutions are prepared in 96-well microtiter trays, each well containing twice the desired final concentration of compound. Each concentration is tested in triplicate and compared to triplicate drug-free controls.
(§4) The cells are grown in the same medium used for diluting the compounds. After harvesting by trypsinization*, viable cell counts are determined and cell density is adjusted to 25,000 cells/mL. Inoculum (0.1 mL), containing the cells, is then added to each well for a final concentration of 2,500 cells per well. Addition of the inoculum dilutes the test compounds to the desired final concentration.
(§5) *Adherent cells are harvested by trypsinization as follows:
(§6) 1. Remove the medium by aspiration.
(§7) 2. Rinse cell monolayer twice with Earle's Balanced Salt Solution.
(§8) 3. Add trypsin (0.05%)/EDTA (0.53 mM). For each 25 cm^2 use approximately 0.2 mL of solution, tilt to cover the monolayer, then withdraw trypsin leaving only a thin film of solution. Incubate at room temperature until cell monolayer detaches.
(§9) 4. When the cells have detached as determined by visual and/or microscopic observation, add medium containing fetal calf serum to stop the action of the trypsin and resuspend the cells. Triturate to aid dissociation of cell clumps.
(§10) 5. Determine the number of cells per milliliter by electronic cell counter (e.g. Coulter Counter) or by mixing an aliquot of cell suspension with Trypan Blue (0.4% in normal saline) and counting the viable cells using a hemacytometer.
(§11) Microtiter trays are incubated for three days at 36° C. in a humidified atmosphere containing 5% carbon dioxide.
(§12) After three days, 20 microtiters of 5 mg/mL MTT in phosphate-buffered saline solution is added to each well. Trays are returned to the incubator for two to four hours to allow the surviving cells to reduce the dye. Medium and unreduced dye are removed by aspiration. DMSO is added to each well to dissolve the water insoluble, colored end product of the dye reduction so that it can be measured spectrophotometrically at 570 nm.

A549 cell line = assay: In vitro cytotoxicity assay (three day MTT microtiter assay), A549; assay type: cell-based; conditions: Homo sapiens, 72 h; A549, three days, MTT; read-out: In vitro tumor cell cytotoxicity (IC50), A549
Procedure: as §1, §2, §3, §4, §5, §6, §7, §8, §9, §10, §11, §12

[1] = system: P388.D1 leukemia cell line; assay: In vitro cytotoxicity assay (three day MTT microtiter assay), P388.D1; assay type: cell-based; conditions: Mus musculus, P388D1, 72 h, read-out: In vitro tumor cell cytotoxicity (IC50), P388.D1
Procedure: The cytotoxity of the compounds of the present invention is illustrated in Table 6. IC50 's were measured in a colorimetric assay for cytotoxic activity against cultured cells according to the protocol described below:
as §2, §3, §4, §5, §6, §7, §8, §9, §10, §11
as §12, with “nm. The IC50 is determined as the concentration of compound tested required to reduce the absorbance at 570 nm to 50% of non-drug treated control values.” for “nm.”
^c P388 D1 is a leukemia cell line.

SMILES	Topoisomerase II-mediated DNA breakage, extent of breakage (DNA topoisomerase II)	Topoisomerase II-mediated DNA breakage, Concentration (DNA topoisomerase II) [µg/mL]	further results
O=c1[nH]sc2c1c(=O)c1cc(F)c(N3CCOCC3)c(F)c1n2C1CC1 [Example 1, 9-Cyclopropyl-6,8-difluoro-7-(1-morpholino)-2,3,4,9-tetrahydroisothiazolo[5,4-b]quinoline-3,4-dione]	SB	32	P388 Leukemia % T/C, median lifespan of treated compared to control mice (P388 Leukemia; 31.25 mg/kg): 104%; P388 Leukemia % T/C, median lifespan of treated compared to control mice (P388 Leukemia; 62.5 mg/kg): 100%; P388 Leukemia % T/C, median lifespan of treated compared to control mice (P388 Leukemia; 125 mg/kg): 108%; P388 Leukemia % T/C, median lifespan of treated compared to control mice (P388 Leukemia; 250 mg/kg): 108%; IC50 (Hela cells): 7 µg/mL (≈ 18.5 µM)
CN1CCN(c2c(F)cc3c(=O)c4c(=O)[nH]sc4n(C4CC4)c3c2F)CC1 [Example 4]	SB	32	IC50 (Hela cells): 1.3 µg/mL (≈ 3.31 µM)
O=c1[nH]sc2c1c(=O)c1cc(F)c(N3CCN(CCO)CC3)c(F)c1n2C1CC1 [Example 5]	MB	64	P388 Leukemia % T/C, median lifespan of treated compared to control mice (P388 Leukemia; 2.5 mg/kg): 125%; P388 Leukemia % T/C, median lifespan of treated compared to control mice (P388 Leukemia; 5 mg/kg): 129%; P388 Leukemia % T/C, median lifespan of treated compared to control mice (P388 Leukemia; 10 mg/kg): 142%; P388 Leukemia % T/C, median lifespan of treated compared to control mice (P388 Leukemia; 12.5 mg/kg): 117%; IC50 (Hela cells): 4 µg/mL (≈ 9.47 µM)
O=c1[nH]sc2c1c(=O)c1cc(F)c(N3CCSCC3)c(F)c1n2C1CC1 [Example 6]	SB	32	IC50 (A549 cell line): 12.5 µg/mL (≈ 31.6 µM); IC50 [1]: 6.3 µg/mL (≈ 15.9 µM)
O=c1[nH]sc2c1c(=O)c1cc(F)c(N3CCCNCC3)c(F)c1n2C1CC1 [Example 7]	SB	32	IC50 [1]: 0.2 µg/mL (≈ 0.51 µM)
O=c1[nH]sc2c1c(=O)c1cc(F)c(N3CCCCC3)c(F)c1n2C1CC1 [Example 8]	MB	32	IC50 (Hela cells): 3.9 µg/mL (≈ 10.3 µM)
O=c1[nH]sc2c1c(=O)c1cc(F)c(NC3CCN(Cc4ccccc4)CC3)c(F)c1n2C1CC1 [Example 13]	–	–	IC50 (Hela cells): 0.55 µg/mL (≈ 1.14 µM)
O=c1[nH]sc2c1c(=O)c1cc(F)c(N3CCNCC3)cc1n2C1CC1 [Example 19, 9-Cyclopropyl-6-fluoro-7-(1-piperazinyl)-2,3,4,9-tetrahydroisothiazolo[5,4-b]quinoline-3,4-dione]	MB	64	–

Continued, in another order:

Topoisomerase II-mediated DNA breakage, extent of breakage (DNA topoisomerase II)	Topoisomerase II-mediated DNA breakage, Concentration (DNA topoisomerase II) [µg/mL]	SMILES	further results
SB	32	O=c1[nH]sc2c1c(=O)c1cc(F)c(N3CCCC(O)C3)c(F)c1n2C1CC1 (centres unmarked) [Example 9]	IC50 (A549 cell line): 3.9 µg/mL (≈ 9.91 µM); IC50 [1]: 2.05 µg/mL (≈ 5.21 µM)
SB	32	O=c1[nH]sc2c1c(=O)c1cc(F)c(N3CCC(O)CC3)c(F)c1n2C1CC1 [Example 10]	P388 Leukemia % T/C, median lifespan of treated compared to control mice (P388 Leukemia; 12.5 mg/kg): 129%; P388 Leukemia % T/C, median lifespan of treated compared to control mice (P388 Leukemia; 25 mg/kg): 133%; P388 Leukemia % T/C, median lifespan of treated compared to control mice (P388 Leukemia; 50 mg/kg): 133%; P388 Leukemia % T/C, median lifespan of treated compared to control mice (P388 Leukemia; 100 mg/kg): 117%; IC50 (A549 cell line): 2.9 µg/mL (≈ 7.37 µM); IC50 [1]: 0.23 µg/mL (≈ 0.585 µM)
SB	32	NCC1CCN(c2c(F)cc3c(=O)c4c(=O)[nH]sc4n(C4CC4)c3c2F)C1 (centres unmarked) [Example 12]	IC50 (A549 cell line): 0.3 µg/mL (≈ 0.764 µM); IC50 [1]: < 0.05 µg/mL
MB	128	CCn1c2s[nH]c(=O)c2c(=O)c2cc(F)c(N3CCNC(C)C3)c(F)c21 (centres unmarked) [Example 15]	–
MB	32 to 64	CCn1c2s[nH]c(=O)c2c(=O)c2cc(F)c(N3CCN(C)CC3)c(F)c21 [Example 16]	–
WB	32 to 64	CCn1c2s[nH]c(=O)c2c(=O)c2cc(F)c(N3CCC(N)C3)c(F)c21 (centres unmarked) [Example 17]	–
WB	128	CC1CN(c2cc3c(cc2F)c(=O)c2c(=O)[nH]sc2n3C2CC2)CCN1C (centres unmarked) [Example 22]	–
WB	32 to 128	O=c1[nH]sc2c1c(=O)c1cc(F)c(N3CCC(O)C3)cc1n2C1CC1 (centres unmarked) [Example 23]	–
WB	64	CNC1CCN(c2cc3c(cc2F)c(=O)c2c(=O)[nH]sc2n3C2CC2)C1 (centres unmarked) [Example 25]	–
WB	128	CCn1c2cc3c(cc2c(=O)c2c(=O)[nH]sc21)OCO3 [Example 29, 9-Ethyl-6,7-methylenedioxy-2,3,4,9-tetrahydroisothiazolo[5,4-b]quinoline-3,4-dione]	–
WB	64	O=c1[nH]sc2c1c(=O)c1cc(F)c(N3CCCC3)c(F)c1n2C1CC1 [Example 32]	–
